This is an account of results in paper PMC7497403, “Development of Potent PfCLK3 Inhibitors Based on TCMDC-135051 as a New Class of Antimalarials” (Journal of Medicinal Chemistry, 2020).

One data set in a line: Aqueous solubility. The class given is physicochemical. Particulars: aqueous medium (not further specified); read-out: Aq. Solubility.
Another data set concerns PINK. To be noted: 1 μM.
The next data set deals with HIPK3 (Homo sapiens, UniProt Q9H422). The data set is described as follows: Kinase screen. Type of data set: biochemical. An excerpt: With verapamil used as a positive control.
Sequence of HIPK3 (Q9H422 whole entry): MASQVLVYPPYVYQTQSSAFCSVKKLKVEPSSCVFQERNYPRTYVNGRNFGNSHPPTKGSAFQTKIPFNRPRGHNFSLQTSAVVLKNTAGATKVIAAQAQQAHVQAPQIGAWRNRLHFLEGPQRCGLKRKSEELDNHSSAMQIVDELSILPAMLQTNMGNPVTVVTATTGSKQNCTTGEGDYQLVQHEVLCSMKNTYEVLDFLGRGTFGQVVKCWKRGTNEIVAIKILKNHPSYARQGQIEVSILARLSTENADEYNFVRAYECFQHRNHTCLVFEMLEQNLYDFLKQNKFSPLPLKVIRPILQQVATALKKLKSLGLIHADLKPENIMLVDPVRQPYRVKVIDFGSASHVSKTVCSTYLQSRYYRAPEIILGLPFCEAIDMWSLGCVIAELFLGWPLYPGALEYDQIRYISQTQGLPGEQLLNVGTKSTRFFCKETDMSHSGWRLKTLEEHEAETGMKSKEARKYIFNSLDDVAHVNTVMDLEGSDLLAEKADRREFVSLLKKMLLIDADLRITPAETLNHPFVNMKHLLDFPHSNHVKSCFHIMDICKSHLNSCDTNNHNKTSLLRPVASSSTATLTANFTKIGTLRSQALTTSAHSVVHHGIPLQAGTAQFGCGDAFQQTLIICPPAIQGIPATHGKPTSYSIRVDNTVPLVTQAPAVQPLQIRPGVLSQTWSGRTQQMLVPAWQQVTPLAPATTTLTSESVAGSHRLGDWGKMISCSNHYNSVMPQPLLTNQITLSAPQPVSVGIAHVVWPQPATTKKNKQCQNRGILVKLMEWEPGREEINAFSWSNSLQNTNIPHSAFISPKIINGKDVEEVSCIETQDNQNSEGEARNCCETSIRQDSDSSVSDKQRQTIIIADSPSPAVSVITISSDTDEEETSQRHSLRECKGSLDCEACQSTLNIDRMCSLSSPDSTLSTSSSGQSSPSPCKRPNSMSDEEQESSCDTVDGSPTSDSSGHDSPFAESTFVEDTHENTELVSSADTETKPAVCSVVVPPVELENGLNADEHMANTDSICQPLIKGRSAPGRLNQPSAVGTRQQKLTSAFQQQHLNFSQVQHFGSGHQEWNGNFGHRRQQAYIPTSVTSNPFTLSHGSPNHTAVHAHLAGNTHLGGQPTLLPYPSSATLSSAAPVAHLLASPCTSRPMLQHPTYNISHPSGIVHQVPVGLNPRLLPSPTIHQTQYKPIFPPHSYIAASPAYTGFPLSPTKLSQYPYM
V. Distribution coefficient (LogD7.4)

The target of a further data set is CK1δ (Homo sapiens, UniProt P48730). The data set is described as follows: Kinase screen. Type of data set: biochemical.
Sequence of CK1δ (P48730 whole entry): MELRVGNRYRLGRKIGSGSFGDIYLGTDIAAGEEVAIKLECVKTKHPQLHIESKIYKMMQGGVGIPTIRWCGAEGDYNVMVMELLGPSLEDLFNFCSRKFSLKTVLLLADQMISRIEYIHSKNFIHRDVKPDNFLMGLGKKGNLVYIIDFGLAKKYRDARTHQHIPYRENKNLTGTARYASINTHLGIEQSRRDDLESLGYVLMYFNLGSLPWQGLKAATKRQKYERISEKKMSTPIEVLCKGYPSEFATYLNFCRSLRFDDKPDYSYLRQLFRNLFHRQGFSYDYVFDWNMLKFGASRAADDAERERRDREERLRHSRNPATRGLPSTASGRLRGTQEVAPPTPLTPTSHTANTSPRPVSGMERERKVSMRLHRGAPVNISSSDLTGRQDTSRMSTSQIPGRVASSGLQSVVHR
Data set [1] has as its system P. falciparum clinical field isolates from The Gambia. Briefly: Parasite reduction rate (PRR) assay with clinical isolates. Type of data set: cell-based.

Values after ≈ are worked out from the molar mass of the structure shown.

One may read the solubility as how much of the substance goes into solution per volume. In the case of `CCN(CC)Cc1ccc(OC)c(-c2cc3c(-c4ccc(C(=O)O)c(C(C)C)c4)ccnc3[nH]2)c1` [analogue 1, 4-(2-(5-((Diethylamino)methyl)-2-methoxyphenyl)-1H-pyrrolo[2,3-b]pyridin-4-yl)-2-isopropylbenzoic Acid], the solubility in the data set “Aqueous solubility” turned out to be 8 µg/mL (≈ 17 µM). In the data set with PINK, the “% Activity” value is recorded as 106%. For the same compound, the activity at 1 µM at HIPK3 is 93%; on CK1δ it was 91%. In addition, the “susceptibility of clinical isolates (PRR)” value in data set [1] is “total susceptibility”.
